# Experimental data from ChEMBL document CHEMBL1201862, “PubChem BioAssay data set” (2004).
# Calls of active or inactive are those of the source.
# Assays:
# [1] = biological target: T1, Mannose-6-phosphate isomerase (Homo sapiens, UniProt P34949); experiment: human PMI inhibitors, high substrate, primary screen, biochemical, fluorescence intensity, high mannose 6-phosphate (AID 1220)
# T1 sequence (P34949 whole entry): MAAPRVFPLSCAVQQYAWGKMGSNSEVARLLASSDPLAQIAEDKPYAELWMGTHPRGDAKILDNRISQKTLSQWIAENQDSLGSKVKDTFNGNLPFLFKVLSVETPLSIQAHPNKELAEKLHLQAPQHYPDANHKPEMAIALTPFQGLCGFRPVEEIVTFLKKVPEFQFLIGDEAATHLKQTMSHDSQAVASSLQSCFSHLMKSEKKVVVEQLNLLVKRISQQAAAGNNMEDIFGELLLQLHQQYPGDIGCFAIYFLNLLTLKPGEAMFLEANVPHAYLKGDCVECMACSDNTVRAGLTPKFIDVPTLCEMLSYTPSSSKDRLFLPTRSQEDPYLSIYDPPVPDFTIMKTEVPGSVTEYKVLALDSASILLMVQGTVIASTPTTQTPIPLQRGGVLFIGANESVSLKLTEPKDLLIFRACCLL
# [2] = cytotoxicity toward NIH3T3 fibroblasts, dose response, counter-screen, cell-based, ATP luminescence, mouse fibroblasts (AID 2010); format: functional;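 note: cells exposed to compound for about 90 hours before reading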
# [3] = inhibitors of intracellular T. cruzi replication, confirmation, NIH3T3 host cells, beta-gal luminescence (AID 2044); format: functional, cell-based;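 note: intracellular parasites grown in NIH/3T3 mouse fibroblasts as host cells; luminescent beta-galactosidase reporter signal from transgenic T. cruzi replicating inside host cells; inhibitors lower the luminescence signal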
# [4] = Luminescence Cell-Based Dose Response HTS to Identify Inhibitors of 5'UTR Stem-Loop Driven Prion Protein mRNA Translation in H4 Neuroglioblastoma Cells. [Related pubchem assays: 1827 (Project Summary), 1813 (Primary HTS)]; format: functional
# [5] = luciferase reporter signal reduction – luminescence, H4-C neuroglioblastoma cells, dose response (AID 2458); format: functional, cell-based;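 note: H4 neuroglioblastoma cells stably carrying a luciferase reporter gene fusion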
# cells [6] = format: functional, cell-based
# Protein Tat = Protein Tat (Human immunodeficiency virus type 1 group M subtype B (isolate HXB2)(HIV-1), UniProt P04608); format: functional;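 note: tat binding to TAR RNA read out by fluorescence polarization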
# [7] = inhibitors of SNCA 5'UTR-driven translation, confirmation, luminescence, H4 neuroglioblastoma cells, dose confirmation (AID 2454); format: functional, cell-based;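 note: H4 neuroglioblastoma cells carrying an alpha-synuclein 5'UTR luciferase reporter; potency for inhibition of the luciferase signal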
# [8] = inhibitors of SNCA 5'UTR-driven reporter translation, confirmation, H4 neuroglioma cells, luminescence (AID 1988); format: functional, cell-based
# [9] = inhibitors of firefly luciferase expression or activity, dose response, H4 neuroglioma cells, luminescence (AID 1990); format: functional, cell-based
# cells [10] = experiment: cells
# [11] = biological target: T2, Short transient receptor potential channel 4 (Mus musculus, UniProt Q9QUQ5); experiment: mouse TRPC4 channel inhibitors, dose response, cell-based, HEK293 TRPC4/mu-opioid, Fluo-4 calcium (AID 434942); format: functional;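 note: potency of inhibitors blocking the TRPC4 calcium response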
# T2 sequence (Q9QUQ5 whole entry): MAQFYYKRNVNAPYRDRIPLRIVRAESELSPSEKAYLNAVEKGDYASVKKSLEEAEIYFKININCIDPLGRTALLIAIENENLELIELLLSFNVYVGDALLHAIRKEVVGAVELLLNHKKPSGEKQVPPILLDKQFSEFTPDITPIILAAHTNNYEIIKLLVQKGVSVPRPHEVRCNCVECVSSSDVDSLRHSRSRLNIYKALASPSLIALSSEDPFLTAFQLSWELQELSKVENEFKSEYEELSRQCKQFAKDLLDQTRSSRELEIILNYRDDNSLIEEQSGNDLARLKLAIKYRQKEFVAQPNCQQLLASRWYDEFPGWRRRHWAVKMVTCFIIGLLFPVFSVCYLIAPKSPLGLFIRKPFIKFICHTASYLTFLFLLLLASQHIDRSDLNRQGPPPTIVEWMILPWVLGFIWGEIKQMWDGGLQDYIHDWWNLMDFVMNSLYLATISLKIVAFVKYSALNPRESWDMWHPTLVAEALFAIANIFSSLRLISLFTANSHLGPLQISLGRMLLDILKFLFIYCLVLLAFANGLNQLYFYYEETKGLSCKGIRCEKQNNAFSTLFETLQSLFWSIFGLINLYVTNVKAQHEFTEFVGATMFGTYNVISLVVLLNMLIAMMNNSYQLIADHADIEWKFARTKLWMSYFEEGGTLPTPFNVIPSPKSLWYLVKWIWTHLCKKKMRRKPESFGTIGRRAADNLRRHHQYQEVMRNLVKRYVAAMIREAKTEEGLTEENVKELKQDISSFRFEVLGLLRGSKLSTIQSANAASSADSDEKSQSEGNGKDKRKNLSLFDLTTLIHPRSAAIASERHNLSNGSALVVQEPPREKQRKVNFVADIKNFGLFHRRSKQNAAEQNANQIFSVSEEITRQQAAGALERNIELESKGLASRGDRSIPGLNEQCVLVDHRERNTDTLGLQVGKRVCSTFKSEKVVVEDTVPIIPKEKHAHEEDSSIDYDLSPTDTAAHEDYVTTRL
# [12] = THP-1 cell cytotoxicity, dose response, cytotoxicity control for non-replicating M. tuberculosis project (AID 489025); format: functional
# [13] = THP-1 cell cytotoxicity, dose response, cytotoxicity control for Vif-APOBEC3G degradation inhibitor project, THP-1 cells (AID 1117359); format: functional; conditions: Human immunodeficiency virus 1, THP-1
# [14] = biological target: Induced myeloid leukemia cell differentiation protein Mcl-1 (Homo sapiens, UniProt Q07820); format: functional
# [15] = biological target: Bifunctional protein GlmU (Mycobacterium tuberculosis, UniProt P9WMN3); experiment: Inhibitors of Mycobacterial Glucosamine-1-phosphate acetyl transferase (GlmU). Secondary screen.; parameters: species or system Mycobacterium tuberculosis H37Rv
# Large T antigen = Large T antigen (Simian virus 40, UniProt P03070); format: functional, Betapolyomavirus macacae;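 note: Confirmatory-stage PubChem screen for compounds that inhibit SV40 T antigen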
# Chain of Large T antigen (P03070 whole entry): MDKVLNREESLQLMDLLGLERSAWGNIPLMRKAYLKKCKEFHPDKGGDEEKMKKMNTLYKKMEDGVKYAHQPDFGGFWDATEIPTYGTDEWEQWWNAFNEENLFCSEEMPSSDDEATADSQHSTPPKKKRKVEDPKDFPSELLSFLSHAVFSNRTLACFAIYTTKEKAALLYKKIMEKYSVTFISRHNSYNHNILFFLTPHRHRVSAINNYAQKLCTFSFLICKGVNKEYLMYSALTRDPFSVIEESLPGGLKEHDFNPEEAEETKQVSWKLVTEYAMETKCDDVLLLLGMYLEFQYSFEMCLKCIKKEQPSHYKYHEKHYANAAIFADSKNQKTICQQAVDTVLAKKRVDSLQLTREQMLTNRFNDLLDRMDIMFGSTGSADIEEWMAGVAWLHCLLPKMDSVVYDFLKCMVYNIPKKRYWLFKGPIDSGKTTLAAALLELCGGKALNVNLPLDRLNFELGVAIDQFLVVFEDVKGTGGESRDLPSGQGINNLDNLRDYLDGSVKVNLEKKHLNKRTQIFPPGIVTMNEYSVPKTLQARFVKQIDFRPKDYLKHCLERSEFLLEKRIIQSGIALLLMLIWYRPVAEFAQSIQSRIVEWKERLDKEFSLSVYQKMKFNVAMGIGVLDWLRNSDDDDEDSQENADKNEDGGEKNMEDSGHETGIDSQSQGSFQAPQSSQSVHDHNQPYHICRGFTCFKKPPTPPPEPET
# Chain of Bifunctional protein GlmU (P9WMN3 whole entry): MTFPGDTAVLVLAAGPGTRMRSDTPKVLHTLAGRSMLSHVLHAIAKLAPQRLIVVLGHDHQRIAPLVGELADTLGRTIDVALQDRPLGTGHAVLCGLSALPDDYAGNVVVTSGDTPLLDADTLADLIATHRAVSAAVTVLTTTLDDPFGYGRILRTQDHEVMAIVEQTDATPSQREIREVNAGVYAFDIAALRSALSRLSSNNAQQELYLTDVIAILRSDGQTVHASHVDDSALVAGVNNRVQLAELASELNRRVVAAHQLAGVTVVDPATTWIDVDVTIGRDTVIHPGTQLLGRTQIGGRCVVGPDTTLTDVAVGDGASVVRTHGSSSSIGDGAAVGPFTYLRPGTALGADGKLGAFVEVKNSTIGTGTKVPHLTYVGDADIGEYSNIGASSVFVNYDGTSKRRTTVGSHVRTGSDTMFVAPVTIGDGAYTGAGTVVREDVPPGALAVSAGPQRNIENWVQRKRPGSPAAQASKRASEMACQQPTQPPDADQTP
# Chain of Protein Tat (P04608 whole entry): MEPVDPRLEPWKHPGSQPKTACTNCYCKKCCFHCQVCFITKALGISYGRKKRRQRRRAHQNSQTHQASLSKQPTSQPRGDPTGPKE
# Chain of Induced myeloid leukemia cell differentiation protein Mcl-1 (Q07820 whole entry): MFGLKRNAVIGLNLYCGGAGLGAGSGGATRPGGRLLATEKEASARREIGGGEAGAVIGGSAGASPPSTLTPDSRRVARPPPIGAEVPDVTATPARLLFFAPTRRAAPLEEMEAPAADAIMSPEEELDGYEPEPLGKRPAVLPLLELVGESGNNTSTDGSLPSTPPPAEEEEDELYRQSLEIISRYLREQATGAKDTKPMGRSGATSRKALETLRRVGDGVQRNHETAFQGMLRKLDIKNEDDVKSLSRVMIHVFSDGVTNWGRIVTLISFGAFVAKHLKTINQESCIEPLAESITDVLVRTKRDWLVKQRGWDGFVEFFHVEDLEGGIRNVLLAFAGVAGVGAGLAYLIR
compound,measurement,setting,value
COc1ccccc1CNc1ccc(N2CCCCC2)cc1,IC50,[1],> 50000 nM (not active)
same,EC50,[2],> 60000 nM (not active)
same,EC50,[3],3170 nM (active)
CCC(C)Cn1c(O)cc2nn(-c3nc4ccccc4s3)c(=O)c-2c1C (centres undefined),EC50,[4],165 nM (active)
same,EC50,[5],58 nM (active)
same,EC50,cells [6],114 nM (active)
same,IC50,Protein Tat,> 50000 nM (active)
same,EC50,[7],72 nM (active)
same,EC50,[8],< 100 nM (active)
same,EC50,[9],< 100 nM (active)
Clc1cccc(C[n+]2cc(-c3ccccc3)n3c2CCC3)c1,EC50,[2],> 60000 nM (not active)
same,EC50,cells [10],7 nM (active)
same,EC50,[11],944 nM (active)
same,EC50,[3],< 100 nM (active)
O=C1NC(=S)S/C1=C\c1ccc(SCc2ccco2)o1,CC50,[12],> 40000 nM (active)
same,CC50,[13],> 40000 nM (active)
same,IC50,[14],1530 nM (active)
same,IC50,[15],17700 nM (active)
same,IC50,Large T antigen,6010 nM (active)
